We go through 24 molecules from patent US11072612B2, “NLRP3 modulators” (INNATE TUMOR IMMUNITY, INC., priority 2016, dated 2021).

As usually defined, the EC50 is the concentration that produces a half-maximal response. Read a low EC50 as a more potent agent.

What all share (type): cell-based
For test [1], the target named is T1, hNLRP3 (Homo sapiens, UniProt Q96P20).
T1 construct: THP-1 cells were purchased from the American Type Culture Collection; host or cells: THP-1 cells, PMA-differentiated
T1 sequence (Q96P20 whole entry): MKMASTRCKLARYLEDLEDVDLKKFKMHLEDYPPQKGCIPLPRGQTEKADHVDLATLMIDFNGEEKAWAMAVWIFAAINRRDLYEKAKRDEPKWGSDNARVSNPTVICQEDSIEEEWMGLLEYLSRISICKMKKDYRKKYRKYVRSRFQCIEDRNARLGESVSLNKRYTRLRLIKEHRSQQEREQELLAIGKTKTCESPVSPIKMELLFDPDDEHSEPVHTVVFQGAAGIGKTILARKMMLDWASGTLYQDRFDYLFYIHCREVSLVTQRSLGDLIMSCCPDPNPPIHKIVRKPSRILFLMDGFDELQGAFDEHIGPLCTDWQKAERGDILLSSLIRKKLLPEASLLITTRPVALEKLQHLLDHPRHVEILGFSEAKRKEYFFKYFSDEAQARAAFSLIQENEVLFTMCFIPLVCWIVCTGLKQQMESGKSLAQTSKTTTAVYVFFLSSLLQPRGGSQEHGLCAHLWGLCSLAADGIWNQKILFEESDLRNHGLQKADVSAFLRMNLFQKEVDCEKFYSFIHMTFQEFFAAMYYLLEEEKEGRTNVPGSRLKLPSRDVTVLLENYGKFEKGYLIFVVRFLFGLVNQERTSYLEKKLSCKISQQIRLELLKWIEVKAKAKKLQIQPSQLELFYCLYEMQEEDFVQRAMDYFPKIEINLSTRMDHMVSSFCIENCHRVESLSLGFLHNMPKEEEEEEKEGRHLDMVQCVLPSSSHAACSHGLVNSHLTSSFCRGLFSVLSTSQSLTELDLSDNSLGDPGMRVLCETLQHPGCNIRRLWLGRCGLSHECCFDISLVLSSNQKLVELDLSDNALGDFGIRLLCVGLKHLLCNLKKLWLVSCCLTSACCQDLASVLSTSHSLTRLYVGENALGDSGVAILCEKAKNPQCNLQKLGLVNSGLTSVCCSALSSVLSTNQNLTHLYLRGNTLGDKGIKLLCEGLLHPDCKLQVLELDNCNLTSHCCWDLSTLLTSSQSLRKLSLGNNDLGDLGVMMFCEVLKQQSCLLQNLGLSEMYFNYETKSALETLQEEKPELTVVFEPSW
The test can be described thus: hNLRP3 agonist assay: IL-1β production in PMA-differentiated THP-1 cells (ELISA). The conditions noted are these: Table 2, 4 hours, IL-1β by ELISA. The protocol:
THP-1 cells were purchased from the American Type Culture Collection and sub-cultured according to instructions from the supplier. Prior to experiments, cells were cultured in RPMI 1640 containing 10% heat inactivated FBS, penicillin (100 units/ml) and streptomycin (100 μg/ml), and maintained in log phase prior to experimental setup. Prior to the experiment THP-1 were treated with PMA (Phorbol 12-myristate 13-acetate) (10 μg/ml) for 24 hours. The day of the experiment the media was removed and attaching cells were treated with trypsin for 2 minutes, cells were then collected, washed with PBS (phosphate buffer saline), spin down, resuspended in 2% heat inactivated FBS with RPMI at a concentration of 1×10^6 cells/ml, and 100 μl was plated in a 96 well plate. Cells were incubated with compounds for 4 hours. Cell free supernatant was collected and the production of IL-1β was evaluated by ELISA. Compounds were dissolved in dimethyl sulfoxide (DMSO) and added to the culture medium to achieve desired concentration (e.g. 100, 30, 10, 3, 1, 0.3 or 0.1 μM). A vehicle only control was run concurrently with each experiment. Final DMSO concentration was 1%.
On the technique in general: ELISA stands for enzyme-linked immunosorbent assay.

For test [2], the target named is T2, TLR7 (Homo sapiens, UniProt Q9NYK1).
T2 sequence (Q9NYK1 27-1049): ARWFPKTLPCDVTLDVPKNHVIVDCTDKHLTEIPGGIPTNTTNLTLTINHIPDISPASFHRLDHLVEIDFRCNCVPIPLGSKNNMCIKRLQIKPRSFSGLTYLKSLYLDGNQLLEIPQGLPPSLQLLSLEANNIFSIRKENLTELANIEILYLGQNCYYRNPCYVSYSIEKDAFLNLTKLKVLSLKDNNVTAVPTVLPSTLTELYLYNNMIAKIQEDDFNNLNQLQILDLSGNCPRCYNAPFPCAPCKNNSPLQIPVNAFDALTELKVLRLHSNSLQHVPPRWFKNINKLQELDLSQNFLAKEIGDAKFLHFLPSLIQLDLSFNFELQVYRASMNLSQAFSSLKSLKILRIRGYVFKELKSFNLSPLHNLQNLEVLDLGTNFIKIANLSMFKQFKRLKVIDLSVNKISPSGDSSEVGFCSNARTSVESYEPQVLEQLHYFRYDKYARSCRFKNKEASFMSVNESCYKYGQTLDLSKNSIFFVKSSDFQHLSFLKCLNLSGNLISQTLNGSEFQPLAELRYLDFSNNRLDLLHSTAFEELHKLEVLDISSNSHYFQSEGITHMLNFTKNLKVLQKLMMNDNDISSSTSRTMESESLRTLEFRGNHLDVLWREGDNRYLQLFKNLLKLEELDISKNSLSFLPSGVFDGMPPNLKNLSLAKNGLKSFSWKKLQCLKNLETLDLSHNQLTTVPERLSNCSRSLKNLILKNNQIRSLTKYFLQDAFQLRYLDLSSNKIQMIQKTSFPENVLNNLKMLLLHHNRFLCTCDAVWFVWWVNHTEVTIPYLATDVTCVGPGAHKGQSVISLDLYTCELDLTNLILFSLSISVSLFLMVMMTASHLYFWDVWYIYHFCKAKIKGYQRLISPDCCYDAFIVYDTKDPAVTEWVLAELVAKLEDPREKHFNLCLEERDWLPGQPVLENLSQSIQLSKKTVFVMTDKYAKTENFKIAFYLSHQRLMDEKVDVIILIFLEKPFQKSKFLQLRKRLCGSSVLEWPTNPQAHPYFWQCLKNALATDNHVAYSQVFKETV
The test can be described thus: TLR7 EC50 assay. The conditions noted are these: Table 2.

The target in test [3] is T3, TLR8 (Homo sapiens, UniProt Q9NR97).
T3 sequence (Q9NR97 27-1041): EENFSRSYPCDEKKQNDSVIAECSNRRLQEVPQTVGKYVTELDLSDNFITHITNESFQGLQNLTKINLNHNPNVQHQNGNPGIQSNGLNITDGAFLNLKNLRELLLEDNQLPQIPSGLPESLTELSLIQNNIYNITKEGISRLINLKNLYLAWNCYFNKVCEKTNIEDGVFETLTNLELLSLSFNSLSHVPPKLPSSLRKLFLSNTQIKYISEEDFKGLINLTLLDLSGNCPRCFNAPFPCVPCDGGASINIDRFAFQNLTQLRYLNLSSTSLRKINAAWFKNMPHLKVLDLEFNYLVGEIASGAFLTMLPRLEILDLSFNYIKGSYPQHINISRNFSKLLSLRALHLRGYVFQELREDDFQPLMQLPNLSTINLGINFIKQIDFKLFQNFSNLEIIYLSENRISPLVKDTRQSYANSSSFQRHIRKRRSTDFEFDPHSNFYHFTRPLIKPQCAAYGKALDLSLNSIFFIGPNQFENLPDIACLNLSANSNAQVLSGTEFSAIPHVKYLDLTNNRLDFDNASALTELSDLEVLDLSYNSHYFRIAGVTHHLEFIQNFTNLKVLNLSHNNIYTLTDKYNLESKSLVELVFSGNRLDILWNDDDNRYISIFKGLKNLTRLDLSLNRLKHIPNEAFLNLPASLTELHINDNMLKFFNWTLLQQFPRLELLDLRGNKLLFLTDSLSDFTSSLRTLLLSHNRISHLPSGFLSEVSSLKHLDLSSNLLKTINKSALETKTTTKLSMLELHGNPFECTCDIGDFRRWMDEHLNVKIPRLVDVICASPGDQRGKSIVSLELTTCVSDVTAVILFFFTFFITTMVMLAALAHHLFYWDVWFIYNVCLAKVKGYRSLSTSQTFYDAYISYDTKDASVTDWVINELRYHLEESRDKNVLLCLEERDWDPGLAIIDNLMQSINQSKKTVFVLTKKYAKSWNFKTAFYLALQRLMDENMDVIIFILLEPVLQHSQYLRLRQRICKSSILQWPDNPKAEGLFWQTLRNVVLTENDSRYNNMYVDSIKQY
The test can be described thus: TLR8 EC50 assay. The conditions noted are these: Table 2.

Take `Nc1nc2cc(-c3ccccc3F)ccc2c2[nH]c(CCCO)nc12` [Compound 203, 3-[4-amino-7-(2-fluorophenyl)-1H-imidazo[4,5-c]quinolin-2-yl]propan-1-ol]: the half-maximal effective concentration (EC50) in test [1], in test [2] and in test [3] was greater than 100 µM in each case.
As to `Nc1nc2cc(Br)ccc2c2[nH]c([C@H]3CC[C@H](O)CC3)nc12` [Compound 125], the EC50 in test [1] was 1 to 20 µM; in test [2], greater than 100 µM; in test [3], greater than 100 µM.
For the molecule `Nc1nc2ccccc2c2[nH]c([C@H]3CC[C@@H](O)CC3)nc12` [Compound 134], the EC50 in test [1] is 20 to 100 µM; in test [2], greater than 100 µM; in test [3] it was greater than 100 µM.
In the case of `Cn1c(CCCO)nc2c(N)nc3cc(-n4cccn4)ccc3c21` [Compound 108], the half-maximal effective concentration (EC50) in test [1] was no more than 1 µM; in test [2], greater than 100 µM; in test [3] it was greater than 100 µM.
On to `Nc1nc2cc(-c3cncc4ccccc34)ccc2c2[nH]c(CCCO)nc12` [Compound 192, 3-(4-amino-7-isoquinolin-4-yl-1H-imidazo[4,5-c]quinolin-2-yl)propan-1-ol], for which the EC50 in test [1], in test [2] and in test [3] was greater than 100 µM each time.
Turning to `CC(C)(C)OC(=O)N1CCC(c2nc3c(N)nc4cc(-c5cccnc5)ccc4c3[nH]2)CC1` [Compound 221], the values for the EC50 in test [1], in test [2] and in test [3] were 1 to 20 µM, greater than 100 µM and greater than 100 µM, respectively.
As for `Nc1nc2cc(-c3cccnc3)ccc2c2[nH]c(CCCO)nc12` [Compound 147, 3-(4-amino-7-pyridin-3-yl-1H-imidazo[4,5-c]quinolin-2-yl)propan-1-ol], the EC50 in test [1] was 1 to 20 µM; in test [2], greater than 100 µM; in test [3] it was greater than 100 µM.
As for `CCCc1ccc2c(c1)nc(N)c1nc(CCCO)[nH]c12` [Compound 160, 3-(4-amino-7-propyl-1H-imidazo[4,5-c]quinolin-2-yl)propan-1-ol], the 50% effective concentration (EC50) in test [1] was no more than 1 µM; in test [2], 20 to 100 µM; in test [3], greater than 100 µM.
`Nc1nc2cc(-n3cnc4ccccc43)ccc2c2[nH]c(CCCO)nc12` [Compound 182, 3-[4-amino-7-(benzimidazol-1-yl)-1H-imidazo[4,5-c]quinolin-2-yl]propan-1-ol]: the concentration for a half-maximal effect (EC50) in test [1], in test [2] and in test [3] was greater than 100 µM in each case.
On to `Cc1cc2nc(N)c3nc(CCCO)[nH]c3c2cc1F` [Compound 128], for which the figures for the EC50 in test [1], in test [2] and in test [3] were 20 to 100 µM, greater than 100 µM and 20 to 100 µM, respectively.
For `CCN(C(C)=O)C(C)c1nc2c(N)nc3cc(-c4cc[nH]n4)ccc3c2[nH]1` (stereo not shown) [Compound 241], the values for the EC50 in test [1], in test [2] and in test [3] were 1 to 20 µM, greater than 100 µM and greater than 100 µM, respectively.
Consider `Nc1nc2cc(-c3cccnc3F)ccc2c2[nH]c(CCCOCc3ccccc3)nc12` [Compound 157, 7-(2-fluoropyridin-3-yl)-2-(3-phenylmethoxypropyl)-1H-imidazo[4,5-c]quinolin-4-amine], for which the EC50 in test [1], in test [2] and in test [3] was greater than 100 µM in each case.
Take `CN1CCC[C@@H](c2nc3c(N)nc4ccccc4c3[nH]2)C1` [Compound 139]: the EC50 in test [1] is 20 to 100 µM; in test [2], greater than 100 µM; in test [3], greater than 100 µM.
In the case of `Cc1cnn(-c2ccc3c(c2)nc(N)c2nc(CCCO)[nH]c23)c1` [Compound 181, 3-[4-amino-7-(4-methylpyrazol-1-yl)-1H-imidazo[4,5-c]quinolin-2-yl]propan-1-ol], the values for the EC50 in test [1], in test [2] and in test [3] were 1 to 20 µM, greater than 100 µM and greater than 100 µM, respectively.
Consider `N#Cc1ccccc1-c1ccc2c(c1)nc(N)c1nc(CCCO)[nH]c12` [Compound 202, 2-[4-amino-2-(3-hydroxypropyl)-1H-imidazo[4,5-c]quinolin-7-yl]benzonitrile], for which the EC50 in test [1], in test [2] and in test [3] was greater than 100 µM throughout.
On to `Cc1cc(-c2ccc3c(c2)nc(N)c2nc(CCCOCc4ccccc4)[nH]c23)n(C)n1` [Compound 150, 7-(2,5-dimethylpyrazol-3-yl)-2-(3-phenylmethoxypropyl)-1H-imidazo[4,5-c]quinolin-4-amine], for which the EC50 in test [1], in test [2] and in test [3] was greater than 100 µM each time.
For the molecule `COC(=O)CCCn1c(CCCO)nc2c(N)nc3cc(Br)ccc3c21` [Compound 141], the concentration giving a half-maximal response (EC50) was 1 to 20 µM in test [1], greater than 100 µM in test [2] and greater than 100 µM in test [3].
On to `N#Cc1cccc(-c2ccc3c(c2)nc(N)c2nc(CCCO)[nH]c23)c1` [Compound 207, 3-[4-amino-2-(3-hydroxypropyl)-1H-imidazo[4,5-c]quinolin-7-yl]benzonitrile], for which the EC50 in test [1], in test [2] and in test [3] was greater than 100 µM throughout.
On to `Nc1nc2cc(Cl)ccc2c2[nH]c(CCCO)nc12` [Compound 165, 3-(4-amino-7-chloro-1H-imidazo[4,5-c]quinolin-2-yl)propan-1-ol], for which the EC50 in test [1], in test [2] and in test [3] was 20 to 100 µM throughout.
On to `Nc1nc2cc(C3CCNC3)ccc2c2[nH]c(CCCO)nc12` (stereo not shown) [Compound 197, 3-(4-amino-7-pyrrolidin-3-yl-1H-imidazo[4,5-c]quinolin-2-yl)propan-1-ol], for which the EC50 in test [1] and in test [2] was greater than 100 µM each time.
`Nc1nc2cc(C3CCNCC3)ccc2c2[nH]c(CCCO)nc12` [Compound 198, 3-(4-amino-7-piperidin-4-yl-1H-imidazo[4,5-c]quinolin-2-yl)propan-1-ol]: the EC50 in test [1] and in test [2] was greater than 100 µM each time.
Turning to `Nc1nc2cc(-c3cccs3)ccc2c2[nH]c(CCCOCc3ccccc3)nc12` [Compound 243], the EC50 in test [1] is 1 to 20 µM.
In test [1], `Nc1nc2cc(Br)ccc2c2[nH]c(C3CCC(O)CC3)nc12` (stereo not shown) [Compound 116] yielded an EC50 of 1 to 20 µM.
Consider `Nc1nc2cc(-n3cccn3)ccc2c2[nH]c(CN3CC4COCC4C3)nc12` (stereo not shown) [Compound 109], for which the half-maximal effective concentration (EC50) in test [1] is no more than 1 µM.
